Laboratory results reported in patent US11708367B2, “Compounds for the treatment of kinase-dependent disorders” (Exelixis, Inc., priority 2018, dated 2023).

What was measured:
Format in all cases: cell-based
AXL = AXL (Homo sapiens (Human), UniProt P30530); test: AXL autophosphorylation ELISA in A-172 cells; conditions: cellular, Gas6-stimulated, phospho-AXL ELISA
Procedure: A-172 glioblastoma cells (ATCC #CRL-1620) were seeded at 2.5×10^5 cells/well onto 24-well plates (Greiner #662165), in DMEM (Thermo Fisher #11995-040) containing 10% FBS (Thermo Fisher #26140-079), 1% MEM NEAA (Thermo Fisher #11140-050), 1% GlutaMax (Thermo Fisher #35050-061), and 1% Penicillin Streptomycin (Thermo Fisher #15140-122). A-172 cells were incubated at 37° C., 5% CO2 for 24 h and then starved for 24 h in serum-free medium. Test compounds were serially diluted to produce an 8-point dose curve in fresh serum-free medium to a final concentration of 0.3% DMSO (vehicle) and added to the cells and incubated for 1 h. Cells were then stimulated with 1 μg/mL recombinant human Gas6 (R&D Systems #885-GSB-500) for 15 min, washed with cold PBS, and immediately lysed with 150 μL of cold IX lysis buffer [20 mM Tris, 137 mM sodium chloride, 2 mM EDTA, 10% glycerol, 1% NP-40 alternative, 1 mM activated sodium orthovanadate, 1 mM PefaBloc SC (Sigma-Aldrich #11429868001), protease/phosphatase inhibitor tablet (Thermo Fisher #A32959)]. Lysates were collected and 100 μL/well added into the human phospho-AXL Duo Set IC ELISA (R&D Systems #DYC2228-2). Assay was performed according to manufacturer's instructions and sample phospho-AXL concentrations were extrapolated using human phospho-AXL control (R&D Systems #841645) as a standard. Positive control wells (100% activity) contained Gas6-stimulated, DMSO-treated cell lysates. Negative control wells (0% activity) contained Gas6-stimulated, reference inhibitor-treated cell lysates. IC50 values were calculated by nonlinear regression analysis using a 4-parameter logistic curve fit in ActivityBase XL (IDBS).

Mer = Mer (Homo sapiens (Human), UniProt Q12866); test: Mer autophosphorylation ELISA in transient transfected 293A cells; conditions: cellular, MERTK-transfected 293A cells, phospho-Mer ELISA
Procedure: 293A cells (Thermo Fisher #R70507) were seeded at 1.5×10^6 cells/well onto 100 mm dish (Greiner #664169), in DMEM (Thermo Fisher #11995-040) containing 10% FBS (Thermo Fisher #26140-079), 1% MEM NEAA (Thermo Fisher #11140-050), 1% GlutaMax (Thermo Fisher #35050-061), and 1% Penicillin Streptomycin (Thermo Fisher #15140-122). 293A cells were incubated at 37° C., 5% CO2 for 24 h and then transfected with 6 μg MERTK DNA (Genecopoeia #EX-Z8208-M02) using TransIT LT1 transfection reagent (Mirus-Bio #MIR2305). After 24 h incubation, the transfected 293A cells were seeded at 1×10^5 cells/well onto 96-well plates (Corning #3904) in DMEM growth medium overnight. Test compounds were serially diluted to produce an 8-point dose curve in fresh serum-free medium to a final concentration of 0.3% DMSO (vehicle) and added to the cells and incubated for 1 h. Cells were then immediately lysed with 150 μL of cold IX lysis buffer [20 mM Tris, 137 mM sodium chloride, 2 mM EDTA, 10% glycerol, 1% NP-40 alternative, 1 mM activated sodium orthovanadate, 1 mM PefaBloc SC (Sigma-Aldrich #11429868001), protease/phosphatase inhibitor tablet (Thermo Fisher #A32959)]. Lysates were clarified by centrifugation and 50 μL/well added into the human phospho-Mer DuoSet IC ELISA (R&D Systems #DYC2579-2). Assay was performed according to manufacturer's instructions and sample phospho-Mer concentrations were extrapolated using human phospho-Mer control (R&D Systems #841793) as a standard. Positive control wells (100% activity) contained DMSO-treated cell lysates. Negative control wells (0% activity) contained reference inhibitor-treated cell lysates. IC50 values were calculated by nonlinear regression analysis using a 4-parameter logistic curve fit in ActivityBase XE (IDBS).

Met = Met (Homo sapiens (Human), UniProt P08581); test: Met autophosphorylation ELISA in PC-3 cells; conditions: cellular, HGF-stimulated, phospho-Met ELISA, read-out: c-Met IC50
Procedure: PC-3 prostate cancer cells (ATCC #CRL-1435) were seeded at 4×10^4 cells/well onto 24-well plates (Greiner #662165), in DMEM (Thermo Fisher #11995-040) containing 10% FBS (Thermo Fisher #26140-079), 1% MEM NEAA (Thermo Fisher #11140-050), 1% GlutaMax (Thermo Fisher #35050-061), and 1% Penicillin Streptomycin (Thermo Fisher #15140-122). PC-3 cells were incubated at 37° C., 5% CO2 for 24 h and then starved for 3 h in serum-free medium. Test compounds were serially diluted to produce an 8-point dose curve in fresh serum-free medium to a final concentration of 0.3% DMSO (vehicle) and added to the cells and incubated for 1 h. Cells were then stimulated with 100 ng/mL recombinant human HGF (R&D Systems #294-HG-250) for 10 min, washed with cold PBS, and immediately lysed with 130 μL of cold IX lysis buffer [20 mM Tris, 137 mM sodium chloride, 2 mM EDTA, 10% glycerol, 1% NP-40 alternative, 1 mM activated sodium orthovanadate, 1 mM PefaBloc SC (Sigma-Aldrich #11429868001), protease/phosphatase inhibitor tablet (Thermo Fisher #A32959)]. Lysates were clarified by centrifugation and 100 μL/well added into the PathScan phospho-Met (panTyr) Sandwich ELISA (Cell Signaling Technology #7333). Assay was performed according to manufacturer's instructions. Positive control wells (100% activity) contained HGF-stimulated, DMSO-treated cell lysates. Negative control wells (0% activity) contained HGF-stimulated, reference inhibitor-treated cell lysates. IC50 values were calculated by nonlinear regression analysis using a 4-parameter logistic curve fit in ActivityBase XL (IDBS).

KDR = KDR (Homo sapiens (Human), UniProt P35968); test: KDR autophosphorylation ELISA in HUVEC cells; conditions: cellular, VEGF165-stimulated, phospho-KDR ELISA
Procedure: Human umbilical vein endothelial cells or HUVEC (Lonza #C2519A) were seeded at 2×10^4 cells/well onto 96-well plates (Corning #3904), in EGM-2 growth medium (Lonza #CC-3162) containing 1% Penicillin Streptomycin (Thermo Fisher #15140-122). HUVEC cells were incubated at 37° C., 5% CO2 for 24 h and then starved for 24 h in serum-free EBM-2 basal medium (Lonza #CC-3156) containing 1% Penicillin Streptomycin. Test compounds were serially diluted to produce an 8-point dose curve in fresh serum-free medium to a final concentration of 0.3% DMSO (vehicle) and added to the cells and incubated for 1 h. Cells were then stimulated with 100 ng/mL recombinant human VEGF165 (R&D Systems #293-VE-500) for 5 min, washed with cold PBS, and immediately lysed with 130 μL of cold 1× lysis buffer [20 mM Tris, 137 mM sodium chloride, 2 mM EDTA, 10% glycerol, 1% NP-40 alternative, 1 mM activated sodium orthovanadate, 1 mM PefaBloc SC (Sigma-Aldrich #11429868001), protease/phosphatase inhibitor tablet (Thermo Fisher #A32959)]. Lysates were collected and 100 μL/well added into the human phospho-KDR Duo Set IC ELISA (R&D Systems #DYC 1766-2). Assay was performed according to manufacturer's instructions and sample phospho-KDR concentrations were extrapolated using human phospho-KDR control (R&D Systems #841421) as a standard. Positive control wells (100% activity) contained VEGF165-stimulated, DMSO-treated cell lysates. Negative control wells (0% activity) contained non-stimulated cell lysates. IC50 values were calculated by nonlinear regression analysis using a 4-parameter logistic curve fit in ActivityBase XE (IDBS).

Sequence of AXL (P30530 26-894): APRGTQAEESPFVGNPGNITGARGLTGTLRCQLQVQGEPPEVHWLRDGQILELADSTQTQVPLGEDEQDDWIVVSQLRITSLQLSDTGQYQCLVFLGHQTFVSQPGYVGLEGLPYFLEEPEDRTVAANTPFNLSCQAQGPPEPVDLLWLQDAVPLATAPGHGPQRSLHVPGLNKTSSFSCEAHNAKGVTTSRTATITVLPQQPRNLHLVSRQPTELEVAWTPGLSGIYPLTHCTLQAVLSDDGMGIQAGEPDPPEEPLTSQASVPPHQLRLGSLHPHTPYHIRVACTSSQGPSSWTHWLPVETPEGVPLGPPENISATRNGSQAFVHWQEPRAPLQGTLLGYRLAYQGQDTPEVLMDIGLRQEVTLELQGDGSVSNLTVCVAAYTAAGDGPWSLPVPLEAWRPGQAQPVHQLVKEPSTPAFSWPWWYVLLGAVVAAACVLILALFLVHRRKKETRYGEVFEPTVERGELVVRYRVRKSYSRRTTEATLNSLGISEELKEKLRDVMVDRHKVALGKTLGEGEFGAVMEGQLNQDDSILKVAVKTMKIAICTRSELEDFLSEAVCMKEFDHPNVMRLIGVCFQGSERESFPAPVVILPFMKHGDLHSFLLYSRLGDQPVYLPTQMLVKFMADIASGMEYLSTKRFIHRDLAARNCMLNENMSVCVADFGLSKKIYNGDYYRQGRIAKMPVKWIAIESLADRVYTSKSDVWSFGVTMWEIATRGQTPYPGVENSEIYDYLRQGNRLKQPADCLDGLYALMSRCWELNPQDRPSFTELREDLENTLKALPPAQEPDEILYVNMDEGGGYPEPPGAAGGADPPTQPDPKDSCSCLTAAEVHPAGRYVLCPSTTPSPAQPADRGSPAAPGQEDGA
Sequence of Mer (Q12866 21-999): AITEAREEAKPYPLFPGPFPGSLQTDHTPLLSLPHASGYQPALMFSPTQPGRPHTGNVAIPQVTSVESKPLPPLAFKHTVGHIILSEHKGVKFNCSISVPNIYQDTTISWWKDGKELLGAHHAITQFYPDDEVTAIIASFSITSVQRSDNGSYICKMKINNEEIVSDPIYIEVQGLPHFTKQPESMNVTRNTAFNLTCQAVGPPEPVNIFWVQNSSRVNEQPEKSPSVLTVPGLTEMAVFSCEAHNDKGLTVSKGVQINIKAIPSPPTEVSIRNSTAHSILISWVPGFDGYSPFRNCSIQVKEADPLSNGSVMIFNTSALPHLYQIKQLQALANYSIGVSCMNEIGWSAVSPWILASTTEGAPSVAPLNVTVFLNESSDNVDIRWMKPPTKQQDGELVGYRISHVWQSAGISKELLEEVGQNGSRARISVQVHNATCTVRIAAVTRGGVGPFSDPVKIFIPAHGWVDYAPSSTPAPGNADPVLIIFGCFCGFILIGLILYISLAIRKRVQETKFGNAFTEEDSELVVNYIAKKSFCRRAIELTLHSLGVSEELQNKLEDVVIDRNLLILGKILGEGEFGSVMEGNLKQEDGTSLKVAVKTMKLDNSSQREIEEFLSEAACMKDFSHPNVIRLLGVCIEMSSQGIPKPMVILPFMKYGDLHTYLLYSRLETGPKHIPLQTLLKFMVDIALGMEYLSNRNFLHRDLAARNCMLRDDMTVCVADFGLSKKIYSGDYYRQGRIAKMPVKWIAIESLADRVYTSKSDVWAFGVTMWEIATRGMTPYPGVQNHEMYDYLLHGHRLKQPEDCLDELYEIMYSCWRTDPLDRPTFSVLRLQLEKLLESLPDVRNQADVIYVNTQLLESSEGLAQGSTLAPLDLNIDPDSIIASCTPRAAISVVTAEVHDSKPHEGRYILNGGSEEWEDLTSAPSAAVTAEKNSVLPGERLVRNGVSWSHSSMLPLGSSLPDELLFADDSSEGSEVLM
Sequence of KDR (P35968 20-1356): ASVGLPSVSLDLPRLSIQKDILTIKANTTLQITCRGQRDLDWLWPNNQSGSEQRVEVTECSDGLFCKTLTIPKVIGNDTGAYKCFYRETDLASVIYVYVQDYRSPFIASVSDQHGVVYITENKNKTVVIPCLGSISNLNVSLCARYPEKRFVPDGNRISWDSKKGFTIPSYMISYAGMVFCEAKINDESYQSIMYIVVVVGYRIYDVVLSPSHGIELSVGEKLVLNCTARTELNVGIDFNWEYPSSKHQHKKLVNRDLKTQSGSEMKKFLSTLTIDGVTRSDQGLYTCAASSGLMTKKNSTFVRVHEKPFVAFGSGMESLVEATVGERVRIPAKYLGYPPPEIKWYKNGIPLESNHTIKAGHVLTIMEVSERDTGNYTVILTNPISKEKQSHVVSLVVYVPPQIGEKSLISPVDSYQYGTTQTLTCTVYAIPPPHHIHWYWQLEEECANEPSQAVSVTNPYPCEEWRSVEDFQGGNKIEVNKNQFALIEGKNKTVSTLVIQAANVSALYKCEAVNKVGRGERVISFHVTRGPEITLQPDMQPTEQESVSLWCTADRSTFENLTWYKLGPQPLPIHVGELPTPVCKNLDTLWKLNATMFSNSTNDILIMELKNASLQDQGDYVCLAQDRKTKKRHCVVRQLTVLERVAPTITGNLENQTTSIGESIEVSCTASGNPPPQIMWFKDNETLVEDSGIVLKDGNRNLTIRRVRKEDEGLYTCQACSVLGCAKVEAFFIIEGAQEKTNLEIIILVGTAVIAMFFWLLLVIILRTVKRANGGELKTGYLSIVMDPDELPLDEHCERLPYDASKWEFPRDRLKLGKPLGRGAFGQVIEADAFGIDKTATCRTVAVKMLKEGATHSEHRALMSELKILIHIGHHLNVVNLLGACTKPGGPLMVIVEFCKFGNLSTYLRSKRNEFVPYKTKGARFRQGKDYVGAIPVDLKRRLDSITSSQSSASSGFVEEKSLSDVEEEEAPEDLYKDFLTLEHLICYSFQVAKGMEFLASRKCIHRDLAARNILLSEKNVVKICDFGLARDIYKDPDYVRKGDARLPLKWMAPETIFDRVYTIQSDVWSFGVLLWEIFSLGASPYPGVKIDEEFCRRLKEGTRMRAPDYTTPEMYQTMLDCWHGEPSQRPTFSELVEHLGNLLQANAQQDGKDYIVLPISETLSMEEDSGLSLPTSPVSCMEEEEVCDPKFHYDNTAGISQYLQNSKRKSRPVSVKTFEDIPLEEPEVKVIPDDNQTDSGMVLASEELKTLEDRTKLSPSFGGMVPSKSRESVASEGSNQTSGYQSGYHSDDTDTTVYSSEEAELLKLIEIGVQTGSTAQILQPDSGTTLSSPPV
Sequence of Met (P08581 25-1390): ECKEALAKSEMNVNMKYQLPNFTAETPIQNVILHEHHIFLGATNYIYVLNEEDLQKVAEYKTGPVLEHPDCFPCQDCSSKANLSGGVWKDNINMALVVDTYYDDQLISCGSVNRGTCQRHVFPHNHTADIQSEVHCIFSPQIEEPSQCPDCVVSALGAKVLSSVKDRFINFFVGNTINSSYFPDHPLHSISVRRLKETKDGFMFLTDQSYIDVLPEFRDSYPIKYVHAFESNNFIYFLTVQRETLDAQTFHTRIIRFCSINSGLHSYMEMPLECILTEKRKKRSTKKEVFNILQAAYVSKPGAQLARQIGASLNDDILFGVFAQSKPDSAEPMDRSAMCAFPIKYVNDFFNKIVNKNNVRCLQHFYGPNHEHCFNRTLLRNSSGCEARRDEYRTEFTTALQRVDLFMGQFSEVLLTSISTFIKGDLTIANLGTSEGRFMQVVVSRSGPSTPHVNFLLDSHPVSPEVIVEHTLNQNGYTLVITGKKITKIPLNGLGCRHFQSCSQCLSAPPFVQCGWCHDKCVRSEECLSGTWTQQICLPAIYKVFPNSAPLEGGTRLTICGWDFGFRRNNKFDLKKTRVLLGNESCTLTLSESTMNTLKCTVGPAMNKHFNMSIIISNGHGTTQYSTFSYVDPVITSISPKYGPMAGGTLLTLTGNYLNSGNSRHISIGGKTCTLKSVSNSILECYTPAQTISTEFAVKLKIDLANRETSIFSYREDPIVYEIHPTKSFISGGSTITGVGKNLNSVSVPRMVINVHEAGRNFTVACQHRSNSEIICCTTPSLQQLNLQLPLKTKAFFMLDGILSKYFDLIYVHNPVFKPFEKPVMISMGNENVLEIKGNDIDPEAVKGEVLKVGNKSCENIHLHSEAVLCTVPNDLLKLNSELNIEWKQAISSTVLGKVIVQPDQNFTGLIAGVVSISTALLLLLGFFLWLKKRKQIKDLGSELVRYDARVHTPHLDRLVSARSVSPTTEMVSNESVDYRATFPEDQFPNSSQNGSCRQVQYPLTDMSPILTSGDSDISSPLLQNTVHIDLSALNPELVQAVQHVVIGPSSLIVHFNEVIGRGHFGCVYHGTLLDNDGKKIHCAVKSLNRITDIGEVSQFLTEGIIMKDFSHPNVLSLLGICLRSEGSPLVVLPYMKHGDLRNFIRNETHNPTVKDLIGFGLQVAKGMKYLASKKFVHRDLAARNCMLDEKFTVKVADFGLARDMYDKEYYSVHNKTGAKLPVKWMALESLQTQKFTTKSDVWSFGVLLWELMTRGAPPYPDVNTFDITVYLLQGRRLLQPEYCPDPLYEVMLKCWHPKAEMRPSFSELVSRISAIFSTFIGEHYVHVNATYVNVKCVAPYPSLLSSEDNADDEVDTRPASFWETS

SMILES | IC50 (AXL) [nM] | IC50 (Mer) [nM] | IC50 (Met) [nM] | IC50 (KDR) [nM]
COc1cnc2c(Oc3cc(F)c(NC(=O)C4(C(=O)Nc5ccc(F)cc5)CC4)cc3F)ncnc2c1 [Compound 19, 1-N′-[2,5-difluoro-4-(7-methoxypyrido[3,2-d]pyrimidin-4-yl)oxyphenyl]-1-N-(4-fluorophenyl)cyclo-propane-1,1-dicarboxamide] | 10 to 100 | 10 to 100 | 10 to 100 | 100 to 300
COCCOc1cc2nccc(Oc3ccc(NC(=O)C4(C(=O)Nc5ccc(F)cc5)CC4)cc3Cl)c2nc1OC [Compound 151, 1-N′-[3-chloro-4-[[6-methoxy-7-(2-methoxyethoxy)-1,5-naphthyridin-4-yl]oxy]phenyl]-1-N-(4-fluoro-phenyl)cyclopropane-1,1-dicarboxamide] | 10 to 100 | 10 to 100 | 10 to 100 | ≤ 10
COc1nc2c(Oc3ccc(NC(=O)C4(C(=O)Nc5ccc(F)cc5)CC4)c(C)c3)ncnc2cc1OCCCN1CCOCC1 [Compound 71, 1-N-(4-fluorophenyl)-1-N′-[4-[6-methoxy-7-(3-morpholin-4-ylpropoxy)pyrido[3,2-d]pyrimidin-4-yl]oxy-2-methylphenyl]cyclopropane-1,1-dicarboxamide] | 10 to 100 | > 300 | 100 to 300 | 10 to 100
COc1nc2c(Oc3ccc(NC(=O)C4(C(=O)Nc5ccc(F)cc5)CC4)c(F)c3)ncnc2cc1OCCCN1CCOCC1 [Compound 69, 1-N′-[2-fluoro-4-[6-methoxy-7-(3-morpholin-4-ylpropoxy)pyrido[3,2-d]pyrimidin-4-yl]oxyphenyl]-1-N-(4-fluorophenyl)cyclo-propane-1,1-dicarboxamide] | ≤ 10 | ≤ 10 | 10 to 100 | 10 to 100
Cn1cc(-c2cnc3c(Oc4ccc(NC(=O)C5(C(=O)Nc6ccc(F)cc6)CC5)cc4)ncnc3c2)cn1 [Compound 129, 1-N′-(4-fluorophenyl)-1-N-[4-[7-(1-methylpyrazol-4-yl)pyrido[3,2-d]pyrimidin-4-yl]oxyphenyl]cyclo-propane-1,1-dicarboxamide] | 10 to 100 | 100 to 300 | 100 to 300 | 100 to 300
COCCOc1cc2nccc(Oc3ccc(NC(=O)C4(C(=O)Nc5ccc(F)cc5)CC4)cc3)c2nc1OC [Compound 149, 1-N′-(4-fluorophenyl)-1-N-[4-[[6-methoxy-7-(2-methoxyethoxy)-1,5-naphthyridin-4-yl]oxy]phenyl]cyclopropane-1,1-dicarboxamide] | ≤ 10 | ≤ 10 | 10 to 100 | ≤ 10
COc1cc2ncnc(Oc3ccc(NC(=O)C4(C(=O)Nc5ccc(F)cc5)CC4)c(F)c3F)c2nc1OC [Compound 34, 1-N′-[4-(6,7-dimethoxypyrido[3,2-d]pyrimidin-4-yl)oxy-2,3-difluorophenyl]-1-N-(4-fluorophenyl)cyclo-propane-1,1-dicarbox-amide] | ≤ 10 | ≤ 10 | 10 to 100 | 10 to 100

The remaining lines, values ahead:

IC50 (AXL) [nM] | IC50 (Mer) [nM] | IC50 (Met) [nM] | IC50 (KDR) [nM] | SMILES
≤ 10 | ≤ 10 | 10 to 100 | ≤ 10 | COCCOc1cc2ncnc(Oc3cc(F)c(NC(=O)C4(C(=O)Nc5ccc(F)cc5)CC4)cc3F)c2nc1OC [Compound 83, 1-N′-[2,5-difluoro-4-[6-methoxy-7-(2-methoxy-ethoxy)pyrido[3,2-d]pyrimidin-4-yl]oxyphenyl]-1-N-(4-fluorophenyl)cyclopropane-1,1-dicarboxamide]
≤ 10 | ≤ 10 | 10 to 100 | 10 to 100 | COCCOc1cc2ncnc(Oc3ccc(NC(=O)C4(C(=O)Nc5ccc(F)cc5)CC4)c(F)c3)c2nc1OC [Compound 81, 1-N′-[2-fluoro-4-[6-methoxy-7-(2-methoxyethoxy)pyrido[3,2-d]pyrimidin-4-yl]oxy-phenyl]-1-N-(4-fluorophenyl)cyclopropane-1,1-dicarboxamide]
≤ 10 | ≤ 10 | 10 to 100 | ≤ 10 | COCCOc1cc2ncnc(Oc3ccc(NC(=O)C4(C(=O)Nc5ccc(F)cc5)CC4)cc3F)c2nc1OC [Compound 79, 1-N′-[3-fluoro-4-[6-methoxy-7-(2-methoxyethoxy)pyrido[3,2-d]pyrimidin-4-yl]oxy-phenyl]-1-N-(4-fluorophenyl)cyclopropane-1,1-dicarboxamide]
≤ 10 | 10 to 100 | 10 to 100 | 10 to 100 | COc1nc2c(Oc3cc(F)c(NC(=O)C4(C(=O)Nc5ccc(F)cc5)CC4)cc3F)ncnc2cc1OCCCN1CCOCC1 [Compound 72, 1-N′-[2,5-difluoro-4-[6-methoxy-7-(3-morpholin-4-ylpropoxy)pyrido[3,2-d]pyrimidin-4-yl]oxyphenyl]-1-N-(4-fluorophenyl)cyclo-propane-1,1-dicarboxamide]
